From PMC5325569, “A new synthetic matrix metalloproteinase inhibitor reduces human mesenchymal stem cell adipogenesis” (PLoS ONE, 2017)

How the values were obtained:
hMSCs [1] = assay: Cytotoxicity assay (Trypan Blue, cell count); format: cell-based, human; settings: 0–100 μM, 24 h
Description: Mercaptosulfonamide MMPIs were dissolved in 100% DMSO to generate 8 mM stock solutions and subsequently diluted with αMEM, while maintaining the final DMSO concentration at 1.25% (v/v). Media supplemented with a panel of final inhibitor concentrations ranging from 0–100 μM were then added to 70–80% confluent hMSC cultures and incubated for 24 h. At the end of treatment, inhibitor-conditioned media was removed and cells were washed with phosphate buffered saline (PBS) (pH 7.4) prior to being trypsinized (0.25% Trypsin, GE Healthcare), pelleted, and resuspended in 1 mL of fresh αMEM. Aliquots of the cell suspension for each condition were diluted 1:1 with 0.4% (w/v) Trypan Blue and counted with a hemocytometer. Relative cytotoxicity was determined by normalizing cell number for each condition against its respective control. A concentration was arbitrarily deemed cytotoxic if it produced a statistically significant reduction in cell number when compared to DMSO controls.

MMP-2 [2] = assay: qPCR of MMP-2 gene expression in hMSCs undergoing adipogenesis; format: cell-based, human; settings: 10 μM
Description: (§1) MMPI treated and untreated hMSCs were collected every 72 h over 21 days of differentiation. Total RNA from each time point was isolated using the E.Z.N.A. Total RNA Kit I (Omega Bio-Tek, Norcross, GA) and purified with the DNA-free RNA Kit (Zymo Research, Irvine, CA). RNA was resuspended in nuclease-free water, with concentrations determined via a Nanodrop UV-Vis Spectrophotometer (ThermoFisher Scientific, Waltham, MA). 500 ng of RNA was used for cDNA synthesis using qScript cDNA SuperMix (Quanta Bioscience, Gaitherburg, MD). 100 ng/μL cDNA was used as template for quantitative PCR on a 7500 Fast Real Time PCR system (Life Technologies, Carlsbad, CA) using PerfeCTa SYBR® Green SuperMix, Low Rox (Quanta Bioscience). Relative gene expression was determined via the 2^^(-ΔΔCt) method. Expression levels of PPARγ (peroxisome-proliferator activated receptor gamma) were determined. β-Actin was used as an endogenous control. Primers were designed with Primer-BLAST (NCBI) and purchased from Integrated DNA Technologies (IDT, Coralville, IA). MMP-2: forward: 5’-[…]-3’ reverse: 5’-[…]-3’; MMP-14: forward: 5’-[…]-3’ Reverse: 5’-[…]-3’; PPARγ: forward: 5’-[…]-3’ reverse: 5’-[…]-3’; β-Actin: forward: 5’-[…]-3’ reverse: 5’-[…]-3’.

MMP-1 = biological target: T1, MMP-1 (Homo sapiens, UniProt P03956); assay: Fluorogenic substrate enzyme inhibition assay, MMP-1; format: biochemical; settings: 25°C, HEPES pH 7.5, 5 μM TCEP, fluorogenic substrate 1 μM
T1 construct: gift of Dr. L. Jack Windsor (Indiana University, Indianapolis, IN)
T1 sequence (P03956 100-469): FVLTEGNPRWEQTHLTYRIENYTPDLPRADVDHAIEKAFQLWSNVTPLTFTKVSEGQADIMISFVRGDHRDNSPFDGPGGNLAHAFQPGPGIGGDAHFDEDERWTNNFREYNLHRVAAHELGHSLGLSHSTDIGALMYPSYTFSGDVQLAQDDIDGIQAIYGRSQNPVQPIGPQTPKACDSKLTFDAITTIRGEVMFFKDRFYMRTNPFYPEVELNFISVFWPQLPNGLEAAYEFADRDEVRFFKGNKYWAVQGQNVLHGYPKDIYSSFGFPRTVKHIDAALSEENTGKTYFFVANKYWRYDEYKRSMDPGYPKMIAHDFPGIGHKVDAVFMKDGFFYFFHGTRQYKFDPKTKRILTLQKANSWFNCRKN
Description: (§2) Enzymatic assays to characterize inhibitor potency were performed as previously described. Assays were performed at 25°C in 50 mM 4-(2-hydroxyethyl)-1-piperazineethanesulfonic acid (HEPES) buffer at pH 7.5 with 10 mM CaCl2, 200 mM NaCl, 0.01% (w/v) Brij-35, and 5 μM tris(2-carboxyethyl)[…] (TCEP). […] Briefly, 10 μL of inhibitor solution or control (100% DMSO), 176 μL of assay buffer, and 10 μL of enzyme solution were mixed and incubated for 30 min prior to initiation of the assay, which was accomplished by adding 4 μL of substrate solution, 5% final concentration DMSO. […] Inhibitor potency was determined via comparison of relative rates (vi/vo).

MMP-14 [3] = biological target: T2, MMP-14 (Homo sapiens, UniProt P50281); assay: Fluorogenic substrate enzyme inhibition assay, MMP-14; format: biochemical; settings: 25°C, HEPES pH 7.5, 5 μM TCEP, fluorogenic substrate 1 μM
T2 construct: gift of Dr. Harald Tscheche (Bielefeld University, Bielefeld, Germany)
Description: (§3) Enzymatic assays to characterize inhibitor potency were performed as previously described. Assays were performed at 25°C in 50 mM 4-(2-hydroxyethyl)-1-piperazineethanesulfonic acid (HEPES) buffer at pH 7.5 with 10 mM CaCl2, 200 mM NaCl, 0.01% (w/v) Brij-35, and 5 μM tris(2-carboxyethyl)[…] (TCEP). The fluorogenic substrate Mca-PLGLDpa-AR-NH2 (M-1895, Bachem, Torrance, CA) was used at a concentration of 1 μM as the substrate to measure inhibition constants. Briefly, 10 μL of inhibitor solution or control (100% DMSO), 176 μL of assay buffer, and 10 μL of enzyme solution were mixed and incubated for 30 min prior to initiation of the assay, which was accomplished by adding 4 μL of substrate solution, 5% final concentration DMSO. The release of product was monitored by fluorescence (λex = 328 nm, λem = 393 nm) with a PerkinElmer luminescence spectrophotometer LS50B (FL WinLab v3.0) connected to a temperature-controlled water bath. Inhibitor potency was determined via comparison of relative rates (vi/vo).

PPARγ [4] = assay: qPCR of PPARγ gene expression in hMSCs undergoing adipogenesis; format: cell-based, human; settings: 10 μM, 21 days, harvested every 72 h, vs DMSO controls
Description: as §1

hMSCs [5] = assay: Relative cell number via nuclei counts in differentiating hMSCs; format: cell-based, human
Description: (§4) After 21 days of differentiation, hMSCs were washed with PBS and fixed with neutral buffered formalin for 1 h. Cells were then stained with 0.3% (w/v) Oil Red-O in 3:2 100% isopropyl alcohol to PBS for 20 min, washed with PBS, stained with 5 μg/mL Hoechst 33342 for 5 min, then washed again. Cultures were later imaged with an epifluorescence capable Nikon TE2000-E2 Eclipse microscope. Relative staining was determined with ImageJ (version 1.46c, National Institutes of Health, Bethesda, MD) by standardizing the area stained in each image to nuclei number prior to normalizing against DMSO treated controls.
Fig 5 Co-treatment of differentiating hMSCs with T0070907 and MMPIs. […] DMSO vehicle was maintained consistent between treatments and used as control. (B) Relative cell number was determined via nuclei counts. […] Scale bar 150 μm. ** P < 0.05, ++ P < 0.05, ## P < 0.05 compared to T0070907.

MMP-14 [6] = assay: qPCR of MMP-14 gene expression in hMSCs undergoing adipogenesis; format: cell-based, human; settings: 10 μM
Description: as §1

MMP-9 = biological target: T3, MMP-9 (Homo sapiens, UniProt P14780); assay: Fluorogenic substrate enzyme inhibition assay, MMP-9; format: biochemical; settings: 25°C, HEPES pH 7.5, 5 μM TCEP, fluorogenic substrate 1 μM
T3 construct: human neutrophil gelatinase B was purified from human blood; from tissue; host or cells: human blood (neutrophils)
T3 sequence (P14780 94-707): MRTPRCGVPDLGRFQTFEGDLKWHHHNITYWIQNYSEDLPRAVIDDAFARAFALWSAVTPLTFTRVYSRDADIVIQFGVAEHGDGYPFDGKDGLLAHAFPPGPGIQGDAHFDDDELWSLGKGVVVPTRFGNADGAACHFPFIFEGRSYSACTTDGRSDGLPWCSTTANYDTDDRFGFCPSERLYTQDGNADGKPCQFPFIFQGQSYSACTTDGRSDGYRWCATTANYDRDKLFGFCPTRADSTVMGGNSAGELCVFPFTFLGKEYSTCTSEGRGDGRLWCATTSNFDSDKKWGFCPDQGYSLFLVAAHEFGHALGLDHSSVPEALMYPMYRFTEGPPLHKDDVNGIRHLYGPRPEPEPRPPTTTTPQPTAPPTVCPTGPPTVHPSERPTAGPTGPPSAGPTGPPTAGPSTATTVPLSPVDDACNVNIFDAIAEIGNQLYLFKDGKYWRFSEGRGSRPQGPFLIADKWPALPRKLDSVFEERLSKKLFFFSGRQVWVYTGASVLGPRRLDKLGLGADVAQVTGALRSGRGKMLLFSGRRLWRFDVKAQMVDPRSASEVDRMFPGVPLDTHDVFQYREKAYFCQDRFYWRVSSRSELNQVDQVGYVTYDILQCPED
Description: as §2

MMP-2 [7] = biological target: T4, MMP-2 (Homo sapiens, UniProt P08253); assay: Fluorogenic substrate enzyme inhibition assay, MMP-2; format: biochemical; settings: 25°C, HEPES pH 7.5, 5 μM TCEP, fluorogenic substrate 1 μM
T4 construct: gift of Dr. L. Jack Windsor (Indiana University, Indianapolis, IN)
T4 sequence (P08253 110-660): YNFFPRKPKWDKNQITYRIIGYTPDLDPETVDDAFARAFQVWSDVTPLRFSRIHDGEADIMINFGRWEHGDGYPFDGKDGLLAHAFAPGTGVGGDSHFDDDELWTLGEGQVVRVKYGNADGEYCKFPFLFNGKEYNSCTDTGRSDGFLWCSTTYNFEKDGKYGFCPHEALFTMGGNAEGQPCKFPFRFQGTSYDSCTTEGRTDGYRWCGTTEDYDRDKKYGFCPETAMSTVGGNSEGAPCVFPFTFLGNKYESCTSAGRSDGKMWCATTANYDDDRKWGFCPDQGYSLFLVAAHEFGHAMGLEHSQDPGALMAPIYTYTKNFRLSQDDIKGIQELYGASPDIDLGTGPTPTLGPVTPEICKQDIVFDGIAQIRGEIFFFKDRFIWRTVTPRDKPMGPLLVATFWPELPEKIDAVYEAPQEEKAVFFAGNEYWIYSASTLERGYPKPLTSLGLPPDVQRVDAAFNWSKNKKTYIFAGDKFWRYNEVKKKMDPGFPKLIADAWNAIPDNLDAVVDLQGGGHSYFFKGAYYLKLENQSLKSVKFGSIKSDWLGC
Description: as §2

MMP-7 = biological target: T5, MMP-7 (Homo sapiens, UniProt P09237); assay: Fluorogenic substrate enzyme inhibition assay, MMP-7; format: biochemical; settings: 25°C, HEPES pH 7.5, 5 μM TCEP, fluorogenic substrate 1 μM
T5 construct: gift of Dr. Harold E. Van Wart (Syntex, Palo Alto, CA)
T5 sequence (P09237 95-267): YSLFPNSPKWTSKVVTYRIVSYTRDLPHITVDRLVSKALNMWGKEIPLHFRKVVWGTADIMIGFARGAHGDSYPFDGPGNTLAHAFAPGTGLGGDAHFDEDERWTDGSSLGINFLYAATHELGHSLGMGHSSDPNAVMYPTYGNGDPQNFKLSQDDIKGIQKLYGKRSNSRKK
Description: as §3

hMSCs [8] = assay: Adipogenic differentiation, lipid accumulation, co-treatment with T0070907; format: cell-based, human; settings: 10 μM compound with 10 μM T0070907
Description: (§5) Human MSCs were seeded into 6-well plates at 1,000 cells/cm^2. Upon reaching 70–80% confluence hMSCs were induced towards an adipogenic lineage by adding dexamethasone (0.5 μM), 3-isobutyl-1-methylxanthine ([…]), and indomethacin (50 μM) to the culture medium. Tested compounds were dissolved in DMSO and added to treatment wells during differentiation to a final total concentration of 10 μM with DMSO concentrations remaining constant (0.125% or 0.25% v/v) between conditions. Wells treated with appropriate concentrations of DMSO alone served as controls. Media and treatments were refreshed every 72 h for 21 days.
as §4

[9] = parameters: method as in PMID 23631440; settings: standard enzyme inhibition assay conditions; cited from earlier work
hMSCs [10] = assay: Adipogenic differentiation, lipid accumulation by Oil Red-O staining; format: cell-based, human; settings: 10 μM, 21 days differentiation, vs DMSO control
Description: as §5, §4

[11] = parameters: method as in PMID 19752200; settings: up to 50 μM; cited from earlier work
PPARγ [12] = test system: PPARγ; parameters: method as in PMID 11877444; settings: read-out: apparent IC50; cited from earlier work
[13] = test system: MDA-MB-231 breast cancer cells; parameters: method as in PMID 21498701; settings: treatments up to 20 μM, without induction of apoptosis; cited from earlier work
[14] = test system: MCF-7 breast cancer cells; parameters: method as in PMID 21498701; settings: treatments up to 20 μM, without induction of apoptosis; cited from earlier work
[15] = Day 21, compared to the negative control

## NCCCCCC(=O)N1C[C@H](NS(=O)(=O)c2ccc(Oc3ccccc3)cc2)[C@@H](S)C1 (relative stereo) [YHJ-7-52]
hMSCs [1]
  Concentration producing a significant reduction in cell number: 100 µM
MMP-2 [2]; [15]
  MMP-2 gene expression level on Day 21: significantly higher
MMP-2 [2]; over 21 days, vs DMSO control
  MMP-2 gene expression level: does not affect
MMP-1
  IC50: 1200 ± 370 nM
MMP-14 [3]
  IC50: 4.3 ± 0.7 nM
PPARγ [4]
  PPARγ expression: significantly suppressed PPARγ expression after day 9
hMSCs [5]; 10 μM compound with 10 μM T0070907
  Further reduction of cell number on co-treatment with T0070907: did not result in further cell number reductions
MMP-14 [6]; [15]
  MMP-14 gene expression level on Day 21: significantly higher
MMP-14 [6]; over 21 days, vs DMSO control
  MMP-14 gene expression level: does not affect
MMP-9
  IC50: 87 ± 9 nM
MMP-2 [7]
  IC50: 5.5 ± 4.2 nM
MMP-7
  IC50: 2400 ± 720 nM
hMSCs [8]
  Further reduction of lipid accumulation on co-treatment with T0070907: ~ 20%
[9]
  Stability: lower stability than the hydroxamate MMPI GM6001

## NCCCCCC(=O)N1C[C@H](NS(=O)(=O)c2ccc(Oc3ccccc3)cc2)[C@@H](O)C1 (relative stereo) [YHJ-7-82]
hMSCs [1]
  Cytotoxicity: minimal cytotoxicity across all tested concentrations
MMP-1
  IC50: > 200000 nM
  IC50 MMP-1: almost undetectable inhibitory activity
MMP-14 [3]
  IC50: > 200000 nM
  IC50 MMP-14: almost undetectable inhibitory activity
MMP-9
  IC50: > 200000 nM
  IC50 MMP-9: almost undetectable inhibitory activity
hMSCs [10]
  Reduction of lipid accumulation: did not produce a significant response
MMP-2 [7]
  IC50: > 100000 nM
  IC50 MMP-2: almost undetectable inhibitory activity
MMP-7
  IC50: > 200000 nM
  IC50 MMP-7: almost undetectable inhibitory activity
hMSCs [8]
  Further reduction of lipid accumulation on co-treatment with T0070907: did not provide any additional reductions

## CNC(=O)[C@H](Cc1c[nH]c2ccccc12)NC(=O)[C@@H](CC(=O)NO)CC(C)C [GM6001, reference compound]
MMP-14 [3]
  IC50: 0.5 ± 0.1 nM
hMSCs [10]
  Reduction of lipid accumulation: ~20%
MMP-7
  IC50: 2 ± 1.9 nM
hMSCs [8]
  Further reduction of lipid accumulation on co-treatment with T0070907: ~ 20%

## O=C(Nc1ccncc1)c1cc([N+](=O)[O-])ccc1Cl [T0070907]
hMSCs [5]; 10 μM, nuclei counts
  Reduction of relative cell number: approximately 30%
[11]
  Cytotoxicity: minimally cytotoxic
hMSCs [10]
  Reduction of lipid accumulation: 20%
PPARγ [12]
  IC50: […]
[13]
  Proliferation of MDA-MB-231 cells: […]
[14]
  Proliferation of MCF-7 cells: […]

## Cc1c(C)c2c(c(C)c1O)CCC(C)(COc1ccc(CC3SC(=O)NC3=O)cc1)O2 (centres unmarked) [Troglitazone]
hMSCs [10]
  Increase of lipid accumulation: approximately 80%
